# Patent publication US20250144054A1, “SMALL MOLECULE STAT3 INHIBITOR FOR TREATING TRIPLE NEGATIVE BREAST CANCER” (UNIVERSITY OF MARYLAND, BALTIMORE, priority 2022, published 2025)
# Tests used:
# P-STAT3 (Y705) = assay: Immunofluorescence staining of P-STAT3 (Y705) localization in SUM159 cells; type: cell-based, human; settings: 8 hours, vs DMSO
# Experimental: (§1) (A) The chemical structures of LLL12B and LLL12. The carbamate ester bond of LLL12B is hydrolytically cleaved by the tumor-associated plasmin to release LLL12. (B) SUM159 cells were seeded in a 6-well plate and treated with LLL12B for 8 hours. Cells were stained with Phospho-Stat3 (Tyr705) and DAPI (indicated by arrows). Green: P-STAT3 (Y705); Blue: DAPI. T47D (C) and MDA-MB-231 (D) breast cancer cells were pretreated with DMSO or LLL12B in a serum-free medium for 2 hours and stimulated with 50 ng/ml of IL-6, IFN-γ, or EGF for additional 30 minutes. Cells were collected and analyzed by Western blot. GAPDH served as a protein loading control.
# Immunofluorescence staining. SUM159 cells were seeded in a 6-well plate and treated with LLL12B or DMSO for 8 hours. Cells were fixed with 4% paraformaldehyde (PFA) for 15 minutes at room temperature and then permeabilized with ice-cold 100% methanol for 10 minutes at −20° C. After blocking in 3% Bovine Serum Albumin (BSA)/0.1% Triton X-100, cells were incubated with rabbit anti-Phospho-Stat3 (Tyr705) (1:100, Cell Signaling Technology, Danvers, MA, USA) overnight at 4° C., then with secondary antibody for 1 hour at room temperature. Cells were photographed using a Leica fluorescence microscope (Leica Microsystems Inc, Deerfield, IL, USA).
# STAT3 [1] = assay: IL-6 induced STAT3 phosphorylation, Western blot, T47D cells; type: cell-based, human; settings: pretreated 2 hours serum-free, 50 ng/ml IL-6 30 minutes
# Experimental: as §1
# (§2) Western blot. Cells were collected and total protein was extracted using cell lysis buffer (Cell Signaling Technology, Danvers, MA, USA). Protein concentration was determined using the Pierce BCA Protein Assay Kit (Thermo Fisher Scientific, Waltham, MA, USA) according to the manufacturer's instructions. Equal amounts of protein were separated by 10% SDS-PAGE gels and transferred to PVDF membranes. Membranes were blocked in 5% non-fat milk at room temperature and probed with specific antibodies P-STAT3 (Y705), STAT3, Cyclin D1, Cleaved Caspase-3, P-STAT1 (Y701), STAT1, P-ERK, ERK or GAPDH (1:1000, Cell Signaling Technology, Danvers, MA, USA) at 4° C. overnight. […]
# ERK = assay: EGF induced ERK phosphorylation, Western blot, MDA-MB-231 cells; type: cell-based, human; settings: pretreated 2 hours, 50 ng/ml EGF 30 minutes
# Experimental: as §1, §2
# STAT3 [2] = assay: Western blot of P-STAT3 (Y705), STAT3, Cyclin D1, Cleaved Caspase-3 in MDA-MB-231 cells; type: cell-based, human; settings: MDA-MB-231, overnight
# Experimental: (A) MDA-MB-231, SUM159, and 4T1 cell lines were treated with DMSO or LLL12B overnight and the expression levels of P-STAT3 (Y705), STAT3, Cyclin D1, and Cleaved Caspase-3 were analyzed by Western blot. GAPDH served as a protein loading control. (B) MDA-MB-231 cells were treated with DMSO or C188-9 overnight and the expression levels of P-STAT3 (Y705), STAT3, Cyclin D1, and Cleaved Caspase-3 were analyzed by Western blot. (C) MDA-MB-231, SUM159, and 4T1 cells were seeded in a 96-well plate and treated with DMSO or LLL12B for 5 hours and a Caspase-3/7 Fluorescence Assay Kit was used to detect the activation of caspase-3/7. (D) MDA-MB-231, SUM159, and 4T1 cell lines were treated with DMSO or LLL12B for 8-12 hours, and flow cytometry was performed to analyze annexin V and PI staining. The quantification of apoptotic cells was shown in the right panel. ** P<0.01, *** P<0.001 and ****P<0.0001.
# SiRNA and transfection. STAT3 siRNA and Negative Control siRNA (Cell Signaling Technology, Danvers, MA, USA) were used to knock down STAT3 in MDA-MB-231, SUM159, and 4T1 cell lines. Cells were transfected with STAT3 siRNA or Negative Control siRNA using Lipofectamine RNAiMAX (Invitrogen, Carlsbad, CA, USA) according to the manufacturer's instructions. After 72 hours, cell viability was examined by MTT cell viability assay, and the transfection efficiency was examined by western blot.
# Western blot. Cells were collected and total protein was extracted using cell lysis buffer (Cell Signaling Technology, Danvers, MA, USA). Protein concentration was determined using the Pierce BCA Protein Assay Kit (Thermo Fisher Scientific, Waltham, MA, USA) according to the manufacturer's instructions. Equal amounts of protein were separated by 10% SDS-PAGE gels and transferred to PVDF membranes. Membranes were blocked in 5% non-fat milk at room temperature and probed with specific antibodies P-STAT3 (Y705), STAT3, Cyclin D1, Cleaved Caspase-3, P-STAT1 (Y701), STAT1, P-ERK, ERK or GAPDH (1:1000, Cell Signaling Technology, Danvers, MA, USA) at 4° C. overnight. The blots were visualized using SuperSignal™ West Femto Maximum Sensitivity Substrate (Thermo Fisher Scientific, Waltham, MA, USA) and an Amersham Imager 680 (GE Healthcare Life Sciences, Marlborough, MA, USA) after incubating with horseradish peroxidase (HRP)-conjugated anti-rabbit secondary antibody (1:5000, Cell Signaling Technology, Danvers, MA, USA).
# MDA-MB-231 cells [3] = assay: Annexin V and PI flow cytometry, MDA-MB-231 cells; type: cell-based, human; settings: MDA-MB-231, 8-12 hours, vs DMSO
# Experimental: (§3) Flow cytometry analysis. Flow cytometry was performed to detect cell apoptosis. The APC Annexin V Apoptosis Detection Kit (Biolegend, San Diego, CA, USA) was used for Annexin V staining. Cells were seeded in a 35 mm culture dish at a density of 1×10^5 cells/dish. After overnight incubation, cells were treated with DMSO or LLL12B for 8-12 hours. Cells were harvested and stained with Annexin V-APC and propidium iodide (PI) according to the manufacturer's instructions. After staining, cells were counted using a FACSCanto II flow cytometer (BD Biosciences, San Jose, CA, USA).
# 4T1 cells = assay: Annexin V and PI flow cytometry, 4T1 cells; type: cell-based, murine; settings: 4T1, 8-12 hours, vs DMSO
# Experimental: as §3
# MDA-MB-231 cells [4] = assay: Colony formation assay, MDA-MB-231 cells; type: cell-based, human; settings: MDA-MB-231, 24 hours treatment, 7 days drug-free, vs DMSO
# Experimental: Colony formation assay. MDA-MB-231, SUM159, and 4T1 cells were seeded in a 6-well plate at a density of 1000 cells/well and treated with DMSO or LLL12B for 24 hours, and then cultured in a drug-free culture medium for 7 days. Colonies were fixed with methanol for 30 min and stained with 1% crystal violet in 25% methanol for 2 hours at room temperature.
# SUM149 xenograft = SUM149 xenograft model in vivo
# Description: Next, the efficacy of LLL12B and Talazoparib was examined in the SUM149 xenograft model in vivo. […] V: Vehicle; L: LLL12B; T: Talazoparib. Western blot analysis further confirmed the inhibition of p-STAT3 in LLL12B and combination treated tumors (FIG. 16D).
# STAT3 [5] = settings: human medulloblastoma cells, refs [25,31]; cited from earlier work
structure (smiles),measurement,setting,value
CN(C)C(=O)Oc1cccc2c1C(=O)c1cccc(S(N)(=O)=O)c1C2=O [LLL12B],distribution of P-STAT3 (Y705) in the nucleus,P-STAT3 (Y705),blocked
same,IL-6 induced phosphorylation of STAT3 (Y705),STAT3 [1],inhibited
same,inhibition of P-ERK stimulated by EGF,ERK,little effect
same,concentration that inhibited P-STAT3 and Cyclin D1 in Western blot,STAT3 [2],1 µM
same,Cyclin D1 expression,STAT3 [2]; vs DMSO,decreased
same,expression of Cleaved Caspase-3,STAT3 [2]; vs DMSO,enhanced
same,phosphorylation of STAT3,STAT3 [2]; vs DMSO,decreased
same,percentage of apoptotic cells,MDA-MB-231 cells [3],significantly increased
same,percentage of apoptotic cells,4T1 cells,significantly increased
same,colony numbers,MDA-MB-231 cells [4],significant reduction
same,"p-STAT3 in tumors, Western blot",SUM149 xenograft,inhibition
same,IL-6 induced STAT3 phosphorylation,STAT3 [5],inhibited
